Test results as given in US20060199241A1, “Electrochemically and optically monitoring cleaving enzyme activity” (priority 2005, published 2006).

Test system: APO-GDH
Assay: Homogeneous optical and electrochemical assay with GDH and PQQ
Type: biochemical
Settings: APO-GDH 1 μM, 2 mM CaCl2, 40 mM glucose, 50 μM PMS, redox indicator (DCIP, resazurin or thionine)
Protocol: Homogeneous Optical and Electrochemical Assay for DNA with GDH and PQQ (See FIG. 8) The PQQ solutions (variable concentrations) included APO-GDH (1 μM), 2 mM CaCl2, and 40 mM Glucose. 50 μM PMS and a redox indicator (0.1-0.2 mM DCIP, 0.025 mM resazurin, or 0.05 mM thionine) were also added. PQQ at 0.1 nM was detectable.

PQQ concentration detectable (GDH enzyme activity): 0.1 nM
SMILES: O=C(O)c1cc(C(=O)O)c2c(n1)C(=O)C(=O)c1cc(C(=O)O)[nH]c1-2 [PQQ, pyrroloquinoline quinone]
